# Measured values from patent US9427415B2, “Methods and compositions for modifying sensorial perception” (The Procter & Gamble Company, priority 2014, dated 2016).
# Where two headings read alike, the source gives them in different places.
# Tests used:
# [1] = target: T1, human TRPA1 (Homo sapiens, UniProt O75762, K186N/R3C/R58T); experiment: Intracellular calcium (Fluo-4, FLIPR) activation of TRPA1 cells by GRAS compounds; assay type: cell-based; settings: relative to AITC 30 μM, read-out: A1 activation, % of agonist value; for activation at 1000 µM: 1 mM;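 as to all read-outs here: TRPA1-expressing cells, fluorescence read on a FLIPR Tetra (ex 488 nm, em 514 nm) every 2 s for 10 min after compound addition, baseline subtracted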
# T1 construct: expressed in transfected cells; pcDNA3 control cells
# T1 sequence (O75762 whole entry R3C/R58T/K186N): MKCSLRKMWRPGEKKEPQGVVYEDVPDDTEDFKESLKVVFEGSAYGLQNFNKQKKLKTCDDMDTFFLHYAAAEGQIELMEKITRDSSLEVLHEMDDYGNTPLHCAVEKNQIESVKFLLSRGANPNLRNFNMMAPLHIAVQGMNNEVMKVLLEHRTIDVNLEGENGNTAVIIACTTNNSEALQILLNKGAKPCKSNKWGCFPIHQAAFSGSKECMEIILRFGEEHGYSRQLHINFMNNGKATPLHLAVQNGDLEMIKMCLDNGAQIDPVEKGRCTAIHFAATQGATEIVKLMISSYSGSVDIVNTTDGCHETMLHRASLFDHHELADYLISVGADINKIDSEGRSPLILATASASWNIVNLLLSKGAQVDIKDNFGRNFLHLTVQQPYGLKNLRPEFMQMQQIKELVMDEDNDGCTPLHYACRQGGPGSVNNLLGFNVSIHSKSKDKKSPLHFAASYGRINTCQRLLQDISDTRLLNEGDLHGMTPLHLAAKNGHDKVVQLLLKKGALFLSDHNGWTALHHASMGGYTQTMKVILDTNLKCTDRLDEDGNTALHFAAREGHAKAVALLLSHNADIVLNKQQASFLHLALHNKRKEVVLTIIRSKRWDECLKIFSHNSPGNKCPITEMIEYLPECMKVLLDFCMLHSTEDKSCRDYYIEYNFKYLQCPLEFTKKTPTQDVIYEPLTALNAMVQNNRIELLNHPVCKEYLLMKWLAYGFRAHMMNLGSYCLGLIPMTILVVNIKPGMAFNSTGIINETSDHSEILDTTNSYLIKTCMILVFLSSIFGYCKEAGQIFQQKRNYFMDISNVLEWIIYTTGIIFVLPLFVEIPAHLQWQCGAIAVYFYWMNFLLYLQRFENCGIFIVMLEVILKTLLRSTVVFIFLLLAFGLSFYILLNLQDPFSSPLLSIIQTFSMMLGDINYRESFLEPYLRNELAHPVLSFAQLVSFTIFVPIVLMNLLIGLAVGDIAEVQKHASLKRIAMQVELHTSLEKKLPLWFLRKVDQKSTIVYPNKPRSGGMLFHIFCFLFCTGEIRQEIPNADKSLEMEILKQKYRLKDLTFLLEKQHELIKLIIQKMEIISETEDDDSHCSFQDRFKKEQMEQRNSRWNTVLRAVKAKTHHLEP
# [2] = test system: TRPA1V1; experiment: Intracellular calcium (Fluo-4, FLIPR) activation of TRPA1V1 cells (co-expressing TRPA1 and TRPV1) by GRAS compounds; assay type: cell-based, human;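 also: HEK293 cells co-expressing TRPA1 and TRPV1, fluorescence read at 488/514 nm after baseline subtraction, recorded every 2 s over 10 min, ionomycin 10 µM and buffer as controls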
# Description: TRPV1, TRPA1, TRPA1V1 and pcDNA3 cells were grown in 15 mL growth medium [high glucose DMEM (Dulbecco's modification of Eagle's medium) supplemented with 10% FBS (fetal bovine serum), 100 μg/mL penicillin/streptomycin, 100 μg/mL G418] in a 75 cm^2 flask for 3 days in a mammalian cell culture incubator at 33° C. and 5% CO2. TRP Cells were detached with 8 mL of PBS (without calcium or magnesium); for pcDNA3 cells, trypsin was used for releasing the cells. The detached cells were spun at low speed (800-900 rpm for 3 min) to pellet the cells. […] The cells were washed once with 45 mL assay buffer (1×HBSS, 20 mM HEPES) by low speed centrifugation (800-900 rpm for 3 min) and resuspended in 11 mL of the assay buffer in a reagent reservoir. […] The plates were set at room temperature for 30 min. The plates were read in a FLIPR^TETRA instrument (Molecular Devices, Sunnyvale, Calif.) at λex 488 nm and λem 514 nm to record baseline fluorescence following which 20 μL of test material at 1 mM or 100 μM final concentration for pure compounds in a GRAS library or 0.004% for extracts. For agonists, capsaicin 350 nM and AITC at 30 μM; and for controls, ionomycin 10 μM and buffer alone) was added to each well using the dispenser provided in the FLIPR. The data point was recorded every 2 seconds for a total of 10 min.
# Average value for activation from three independent assay plates are presented as % of agonist value (AITC, 30 μM for TRPA1 and capsaicin, 350 nM for TRPV1. For TRPA1V1, we used AITC, 30 μM or capsaicin, 350 nM depending on if the compound is an A1 agonist or a V1 agonist. For compounds that activated both A1 and V1, we used AITC for normalization). Variation among triplicates was within 10% of each other. Assayed at 1 mM for pure compounds and 0.004% for extracts.
# [3] = target: T2, human TRPV1 (Homo sapiens, UniProt Q8NER1, M315I/T336M); experiment: Intracellular calcium (Fluo-4, FLIPR) activation of TRPV1 cells by GRAS compounds; assay type: cell-based; settings: relative to capsaicin 350 nM;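 also: TRPV1-expressing cells, FLIPR fluorescence at 488/514 nm with baseline subtracted, sampled every 2 s for 10 min after adding compound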
# T2 construct: expressed in transfected cells; pcDNA3 control cells
# T2 sequence (Q8NER1 whole entry M315I/T336M): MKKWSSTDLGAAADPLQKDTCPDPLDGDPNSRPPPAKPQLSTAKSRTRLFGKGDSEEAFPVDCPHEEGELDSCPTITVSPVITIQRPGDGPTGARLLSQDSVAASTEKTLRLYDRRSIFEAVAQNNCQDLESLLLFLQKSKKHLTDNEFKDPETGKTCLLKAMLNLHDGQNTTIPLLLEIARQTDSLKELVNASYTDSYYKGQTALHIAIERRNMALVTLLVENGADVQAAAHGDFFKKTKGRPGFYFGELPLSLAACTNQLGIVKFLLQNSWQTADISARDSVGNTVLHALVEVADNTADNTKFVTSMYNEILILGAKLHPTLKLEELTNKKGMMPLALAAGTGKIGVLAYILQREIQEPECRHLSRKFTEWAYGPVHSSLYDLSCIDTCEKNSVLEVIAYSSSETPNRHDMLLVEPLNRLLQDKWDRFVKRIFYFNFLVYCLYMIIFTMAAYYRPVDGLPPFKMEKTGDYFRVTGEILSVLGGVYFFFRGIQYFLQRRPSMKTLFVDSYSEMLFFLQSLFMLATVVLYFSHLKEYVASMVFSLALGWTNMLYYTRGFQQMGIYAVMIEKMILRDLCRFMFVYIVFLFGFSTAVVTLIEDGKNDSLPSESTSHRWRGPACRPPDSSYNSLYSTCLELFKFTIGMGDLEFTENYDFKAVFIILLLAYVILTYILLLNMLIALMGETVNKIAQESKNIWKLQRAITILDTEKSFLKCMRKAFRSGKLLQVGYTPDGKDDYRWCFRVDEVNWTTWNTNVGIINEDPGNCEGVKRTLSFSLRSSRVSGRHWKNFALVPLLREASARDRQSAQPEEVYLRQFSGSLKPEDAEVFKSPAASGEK
# [4] = Table 1(g), 1 mM, relative to capsaicin 350 nM
# [5] = Table 1(g), 1 mM, read-out: V1 activation, % of agonist value
# [6] = Table 1(h), 1 mM, relative to capsaicin 350 nM
# [7] = Table 1(h), 1 mM, read-out: V1 activation, % of agonist value
# [8] = Table 1(f), 1 mM, relative to capsaicin 350 nM
# [9] = Table 1(f), 1 mM, read-out: V1 activation, % of agonist value
compound,measurement,setting,value
Cc1nccnc1SCc1ccco1 [2-Furfurylthio-3-methylpyrazine],activation at 100 µM,[1]; Table 1(a),80.7%
same,"A1V1 activation, % of agonist value","[2]; Table 1(a), 100 μM (*), relative to AITC 30 μM",80.9%
same,activation at 100 µM,"[3]; Table 1(a), 100 μM (*), read-out: V1 activation, % of agonist value",31.3%
CCCCC(=O)C(CCC)Sc1ccoc1C (stereo not shown) [4-(2-Methyl-3-furylthio)-5-nonanone],activation at 100 µM,[1]; Table 1(d),52.5%
same,"A1V1 activation, % of agonist value","[2]; Table 1(d), 100 μM (*), relative to AITC 30 μM",34.1%
same,"A1V1 activation, % of agonist value",[2]; [4],64%
same,activation at 1000 µM,[3]; [5],40.6%
O=Cc1cc2ccccc2o1 [2-Benzofurancarboxaldehyde],activation at 1000 µM,"[1]; Table 1(a), average of three plates",91%
same,"A1V1 activation, % of agonist value","[2]; Table 1(a), 1 mM, relative to AITC 30 μM, average of three plates",102.3%
same,activation at 1000 µM,"[3]; Table 1(a), 1 mM, average of three plates, read-out: V1 activation, % of agonist value",57.6%
OCCCCCc1ccccc1 [5-Phenyl-1-pentanol],activation at 1000 µM,[1]; Table 1(b),119%
same,"A1V1 activation, % of agonist value","[2]; Table 1(b), 1 mM, relative to AITC 30 μM",52.1%
same,activation at 1000 µM,"[3]; Table 1(b), 1 mM, read-out: V1 activation, % of agonist value",113%
O=C(/C=C/C=C/c1ccc2c(c1)OCO2)N1CCCCC1 [Piperine],"A1V1 activation, % of agonist value",[2]; [6],57.1%
same,activation at 1000 µM,[3]; [7],120%
"CC(=O)S [Acetic acid, thio-]","A1V1 activation, % of agonist value",[2]; [4],115.1%
same,"V1 activation, % of agonist value","[3]; Table 1(g), 1 mM",61.9%
c1ccc2[nH]ccc2c1 [Indole],"A1V1 activation, % of agonist value",[2]; [8],42.9%
same,activation at 1000 µM,[3]; [9],53.3%
O=C(O)CCCCC(=O)O [Adipic acid],"A1V1 activation, % of agonist value",[2]; [4],70.4%
same,activation at 1000 µM,[3]; [5],47.6%
CC(=O)CC(=O)OCC(C)C [Isobutyle acetoacetate],"A1V1 activation, % of agonist value",[2]; [4],81.9%
same,"V1 activation, % of agonist value","[3]; Table 1(g), 1 mM",54.1%
CC1(C)[C@@H](O[C@H]2O[C@H](C(=O)O)[C@@H](O)[C@H](O)[C@H]2O[C@@H]2O[C@H](C(=O)O)[C@@H](O)[C@H](O)[C@H]2O)CC[C@]2(C)[C@H]3C(=O)C=C4[C@@H]5C[C@@](C)(C(=O)O)CC[C@]5(C)CC[C@@]4(C)[C@]3(C)CC[C@@H]12 [18beta-Glycyrrhizinic acid],"A1V1 activation, % of agonist value",[2]; [4],162.7%
same,"V1 activation, % of agonist value","[3]; Table 1(g), 1 mM",100.9%
"C=CCSCC=C [1-Propene, 3,3′-thiobis-]","A1V1 activation, % of agonist value",[2]; [4],108.4%
same,activation at 1000 µM,[3]; [5],47.3%
CC(C)[C@@H]1CC[C@@H](C)C[C@@H]1O [(+)-Neomenthol],"A1V1 activation, % of agonist value",[2]; [6],44.8%
same,"V1 activation, % of agonist value","[3]; Table 1(h), 1 mM",68.8%
"CC1SCCS1 [1,3-Dithiolane, 2-methyl-]","A1V1 activation, % of agonist value",[2]; [4],119.9%
same,activation at 1000 µM,[3]; [5],66.2%
CCCCCCCC(=O)O [Octanoic acid],"A1V1 activation, % of agonist value",[2]; [8],83.4%
same,activation at 1000 µM,[3]; [9],73.7%
CCCCCc1cccc(=O)o1 [6-Pentyl-alpha-pyrone],"A1V1 activation, % of agonist value",[2]; [4],95.2%
same,"V1 activation, % of agonist value","[3]; Table 1(g), 1 mM",66.1%
CCCCCCCC1CC(C)OC1=O (stereo not shown) [3-Heptyldihydro-5-methylfuran-2(3H)-one],"A1V1 activation, % of agonist value",[2]; [8],40.5%
same,activation at 1000 µM,[3]; [9],45.5%
CC(=O)c1ccc(C)cc1 [4′-Methylacetophenone],"A1V1 activation, % of agonist value",[2]; [4],136.6%
same,activation at 1000 µM,[3]; [5],55%
O=C(O)[C@H](O)[C@@H](O)C(=O)O [L-(+)-Tartaric acid],"A1V1 activation, % of agonist value","[2]; Table 1(h), 100 μM (marked *), relative to capsaicin 350 nM",38.4%
same,"V1 activation, % of agonist value","[3]; Table 1(h), 100 μM (marked *)",60.4%
CC(=O)CCc1ccc(OC(C)=O)cc1 [4-(p-Acetoxyphenyl)-2-butanone],"A1V1 activation, % of agonist value",[2]; [4],91.8%
same,activation at 1000 µM,[3]; [5],58.9%
CCCCCCCCCC1CCCC(=O)O1 (stereo not shown) [Delta-tetradecalactone],"A1V1 activation, % of agonist value",[2]; [4],61.7%
same,"V1 activation, % of agonist value","[3]; Table 1(g), 1 mM",33.0%
Tolylaldehyde glyceryl acetyl,"A1V1 activation, % of agonist value",[2]; [4],110.7%
same,"V1 activation, % of agonist value","[3]; Table 1(g), 1 mM",53.0%
O=C(O)C(O)C(O)C(=O)O (stereo not shown) [Tartaric acid],"A1V1 activation, % of agonist value",[2]; [6],29.6%
same,activation at 1000 µM,[3]; [7],55.8%
